Where two headings read alike, the source gives them in different places.
Assay: clinical
Details: human, in vivo; for AUC(0-inf): read-out: AUCINF_obs; for Cmax: read-out: Cmax
Procedure: For single-dose PK parameters, plasma samples were taken at pre-dose and 0.5 h, 1 h, 2 h, 3 h, 4 h, 6 h, 8 h, 12 h, 24 h, 48 h, 72 h, 96 h, 120 h, 144 h, and 168 h post-dose in PK lead-in phase of dose-escalation phase, and plasma samples were also taken at pre-dose and 0.5 h, 1 h, 2 h, 3 h, 4 h, 6 h, 8 h, 12 h, and 24 h post-dose in cycle 1 day 1 of dose-expansion phase. During continuous dosing, serial plasma samples were collected at pre-dose in cycle 1 day 15, pre-dose in cycle 1 day 22, pre-dose and 0.5 h, 1 h, 2 h, 3 h, 4 h, 6 h, 8 h, 12 h, and 24 h post-dose in cycle 1 day 28 for all dose cohorts. The following PK parameters were assessed: area under the concentration-time curve from the time of dosing extrapolated to infinity, based on the last observed concentration (AUCINF_obs); area under the concentration-time curve from the time of dosing to the time of last observation (AUClast); maximum concentration (Cmax); time to maximum concentration (Tmax); elimination half-life (T1/2); and mean residence time from the time of dosing to the time of the last measurable concentration (MRTlast).

[1] = cycle 1 day 28 of dose-escalation phase, 600 mg (n=7), mean
[2] = cycle 1 day 28 of dose-escalation phase, 800 mg (n=2), mean
[3] = single dose, PK lead-in phase of dose-escalation phase, 50 mg (n=2), mean
[4] = single dose, PK lead-in phase of dose-escalation phase, 100 mg (n=3), mean
[5] = single dose, PK lead-in phase of dose-escalation phase, 200 mg (n=3), mean
[6] = single dose, PK lead-in phase of dose-escalation phase, 300 mg (n=3), mean
[7] = single dose, PK lead-in phase of dose-escalation phase, 450 mg (n=4), mean
[8] = single dose, PK lead-in phase of dose-escalation phase, 600 mg (n=7), mean
[9] = single dose, PK lead-in phase of dose-escalation phase, 800 mg (n=3), mean

With `COc1cc(N2CCC(N3CCN(C)CC3)CC2)ccc1Nc1nc2c(c(Nc3ccccc3S(=O)(=O)NC(C)C)n1)CCN2` [Conteltinib] the Tmax (cycle 1 day 28 of dose-escalation phase, 450 mg (n=3), mean, read-out: Tmax) was 4.3 h, the AUC(0-t) [1] was 14000 ng·h/mL and the MRT last [1] was 10.8 h. It also gave an AUC(0-inf) [1] of 53800 ng·h/mL, a Cmax [1] of 985 ng/mL and a half-life (cycle 1 day 28 of dose-escalation phase, 600 mg (n=7), mean, read-out: T1/2 (converted)) of 45 h. It also gave a Tmax (cycle 1 day 28 of dose-escalation phase, 600 mg (n=7), mean, read-out: Tmax) of 2.5 h, an AUC(0-t) [2] of 5500 ng·h/mL and an MRT last [2] of 11.6 h. For the same compound, the AUC(0-inf) [2] was 27200 ng·h/mL, the Cmax [2] was 305 ng/mL and the half-life (cycle 1 day 28 of dose-escalation phase, 800 mg (n=2), mean, read-out: T1/2 (converted)) was 52.7 h. The Tmax (cycle 1 day 28 of dose-escalation phase, 800 mg (n=2), mean, read-out: Tmax) was 3.5 h, the half-life (multiple-dose administration, read-out: mean T1/2 across dose cohorts) was 26.3 to 352 h and the Tmax (multiple-dose administration, read-out: mean Tmax across dose cohorts) was 1.5 to 4.3 h. It also gave an AUC(0-t) [3] of 125 ng·h/mL, an MRT last [3] of 8.1 h and an AUC(0-inf) [3] of 206 ng·h/mL. For the same compound, the Cmax [3] was 16.3 ng/mL, the half-life (single dose, PK lead-in phase of dose-escalation phase, 50 mg (n=2), mean, read-out: T1/2 (converted)) was 22.5 h and the Tmax (single dose, PK lead-in phase of dose-escalation phase, 50 mg (n=2), mean, read-out: Tmax) was 2 h. For the same compound, the AUC(0-t) [4] was 732 ng·h/mL, the MRT last [4] was 30.3 h and the AUC(0-inf) [4] was 1050 ng·h/mL. The Cmax [4] was 69 ng/mL, the half-life (single dose, PK lead-in phase of dose-escalation phase, 100 mg (n=3), mean, read-out: T1/2 (converted)) was 90.2 h and the Tmax (single dose, PK lead-in phase of dose-escalation phase, 100 mg (n=3), mean, read-out: Tmax) was 2.8 h. For the same compound, the AUC(0-t) [5] was 2550 ng·h/mL, the MRT last [5] was 47.4 h and the AUC(0-inf) [5] was 3110 ng·h/mL. The Cmax [5] was 140 ng/mL, the half-life (single dose, PK lead-in phase of dose-escalation phase, 200 mg (n=3), mean, read-out: T1/2 (converted)) was 83.5 h and the Tmax (single dose, PK lead-in phase of dose-escalation phase, 200 mg (n=3), mean, read-out: Tmax) was 2.7 h. The AUC(0-t) [6] was 4340 ng·h/mL, the MRT last [6] was 46.2 h and the AUC(0-inf) [6] was 5110 ng·h/mL. For the same compound, the Cmax [6] was 246 ng/mL, the half-life (single dose, PK lead-in phase of dose-escalation phase, 300 mg (n=3), mean, read-out: T1/2 (converted)) was 78.5 h and the Tmax (single dose, PK lead-in phase of dose-escalation phase, 300 mg (n=3), mean, read-out: Tmax) was 2.5 h. The AUC(0-t) [7] was 9880 ng·h/mL, the MRT last [7] was 40.5 h and the AUC(0-inf) [7] was 11500 ng·h/mL. It also gave a Cmax [7] of 544 ng/mL, a half-life (single dose, PK lead-in phase of dose-escalation phase, 450 mg (n=4), mean, read-out: T1/2 (converted)) of 78.7 h and a Tmax (single dose, PK lead-in phase of dose-escalation phase, 450 mg (n=4), mean, read-out: Tmax) of 3.3 h. It also gave an AUC(0-t) [8] of 9640 ng·h/mL, an MRT last [8] of 43.3 h and an AUC(0-inf) [8] of 11200 ng·h/mL. It also gave a Cmax [8] of 452 ng/mL, a half-life (single dose, PK lead-in phase of dose-escalation phase, 600 mg (n=7), mean, read-out: T1/2 (converted)) of 78.7 h and a Tmax (single dose, PK lead-in phase of dose-escalation phase, 600 mg (n=7), mean, read-out: Tmax) of 3.9 h. For the same compound, the AUC(0-t) [9] was 9820 ng·h/mL, the MRT last [9] was 42 h and the AUC(0-inf) [9] was 11200 ng·h/mL. It also gave a Cmax [9] of 421 ng/mL, a half-life (single dose, PK lead-in phase of dose-escalation phase, 800 mg (n=3), mean, read-out: T1/2 (converted)) of 77.2 h and a Tmax (single dose, PK lead-in phase of dose-escalation phase, 800 mg (n=3), mean, read-out: Tmax) of 3.7 h. The half-life (single-dose administration, read-out: mean T1/2 across dose cohorts) was 16.7 to 90.2 h, the Tmax (single-dose administration, read-out: mean Tmax across dose cohorts) was 2 to 4.6 h and the MRT last (cycle 1 day 28 of dose-expansion phase, 600 mg (n=10), mean) was 10.9 h. For the same compound, the half-life (single dose, cycle 1 day 1 of dose-expansion phase, 450 mg (n=10), mean, read-out: T1/2 (converted)) was 23.4 h.
